Measured values as given in US11446276B2, “Extreme low dose THC as a therapeutic and prophylactic agent for Alzheimer's disease” (University of South Florida, priority 2015, dated 2022).
Like-named read-outs stand apart in the source and are kept apart here.

Assays:
[1] = system: tau protein in PC12 cells; settings: cited from earlier work
[2] = system: Aβ40 in N2a/AβPPswe cells; test: Aβ40 ELISA of N2a/AβPPswe cells treated with THC or caffeine; type: cell-based, human; settings: THC 0.25-2500 nM or caffeine 0.625-10 μM
Aβ [3] = settings: cited from earlier work
[4] = system: mitochondrial complexes I and IV; settings: in vivo; cited from earlier work
[5] = system: Aβ in neuroblastoma cells; settings: cited from earlier work
[6] = system: hepatic mitochondrial DNA; settings: mice; cited from earlier work
Aβ [7] = settings: entorhinal cortex and hippocampus; transgenic mice model of AD; cited from earlier work
Aβ [8] = settings: frontal cortex; transgenic mice; cited from earlier work
Aβ1-41 = settings: transgenic mice; cited from earlier work
Aβ aggregation [9] = settings: neuronal cells; cited from earlier work
Aβ [10] = settings: rats; cited from earlier work
Aβ in N2A cells = settings: cited from earlier work
Aβ aggregation [11] = settings: PC12 cells study; cited from earlier work
Aβ [12] = settings: rat model of sporadic AD; cited from earlier work
GSK-3β phosphorylation = settings: melatonin 100 μM at the cellular level; cited from earlier work
tau or neurofilament = settings: induced by wortmannin, calyculin A, okadaic acid; N2a and SH-SY5Y cells; cited from earlier work
AβPP = settings: transgenic model of AD; cited from earlier work
Aβ [13] = settings: transgenic model of AD; cited from earlier work
mitochondrial function = settings: Alzheimer's mice; cited from earlier work
Aβ in N2a/AβPPswe cells = test: Sandwich ELISA of Aβ in N2a/AβPPswe cells treated with THC and CB1 inhibitor rimonabant; type: cell-based, human
Procedure: The mechanism of action was elucidated for THC's effect on Aβ levels using a sandwich ELISA assay. N2a/AβPPswe cells, as discussed in Example 1, were suspended to 2×10^5/mL, 3 mL plated into each well, and grown in DMEM with 10% fetal bovine serum, 100 U/mL penicillin, 100 μg/mL streptomycin, and 400 μg/mL G418 (Invitrogen), at 37° C. in the presence of 5% CO2. N2a/AβPPswe cells were subcultured using trypsin, and pipetted numerous times to ensure cells were separated into individual cells. Cells were counted, as provided in Example 1, and proper amount of cell medium and fresh medium was added into new flasks according to the ratio of dilution. Pipetting was performed 10 times to homogenize cells, and 3 mL of cells were seeded into medium into each 6 well plate. When one pipette was used up, the cells were mixed in the flask before using them for the next pipette. Compounds were suspended in DMSO.
12 hours after cells were plated, cells were treated with 25 nM of Δ9-THC (T4764-1ML Sigma Aldrich, Merck KGaA; Darmstadt, Germany), with the known inhibitor of the CB1 receptor, rimonabant, at 0 μM, 100 μM, 10 μM, 1 μM, or 0.1 μM rimonabant. Untreated N2a/AβPPswe cells were used as a control. Treatment was then washed out, i.e. the medium was then removed from the cultures and 3 mL of media containing the treatment compounds were added. Cells were collected at 12 hours afterwards, 48 hours afterwards, 60 hours afterwards, and 72 hours afterwards, and ELISA was conducted on the cells.
ELISA assay was performed on the cells using 50 μL of goat anti-PWT1-42 antibody solution, which was incubated overnight, followed by a 1-hour incubation with 0.1% I-block buffer. The tissue culture supernatant was diluted 1:10 with diluent buffer containing a protease inhibitor. Standards were prepared by serial dilution, as provided in Example 1. The plate was washed and 50 μL of sample or standard was added with triplication. 50 μL of both Biosource 40/42 (HS) (primary antibody) Aβ and a standard solution was added to each well and incubated for 3 hours followed by 5× wash with PBST. […]

## C=C(C)[C@@H]1CCC(C)=C[C@H]1c1c(O)cc(CCCCC)cc1O [Cannabidiol]
[1]
  β-amyloid-induced tau protein hyperphosphorylation: inhibits β-amyloid-induced tau protein hyperphosphorylation

## Cn1c(=O)c2c(ncn2C)n(C)c1=O [caffeine]
[2]; 6 hours, FIG. 1A
  Aβ40 levels versus control: significant reduction
[2]; 24 hours, FIG. 1B
  Aβ40 levels versus control: exponential drop
[2]; 48 hours, FIG. 1C
  Aβ40 levels versus control: significant difference
Aβ [3]; mouse model
  Serum Aβ40 levels: lower serum Aβ40 levels
Aβ [3]; transgenic mouse model
  Brain Aβ levels: lowering brain Aβ levels

## COc1ccc2[nH]cc(CCNC(C)=O)c2c1 [melatonin]
[4]
  Inhibition of mitochondrial complexes I and IV induced by ruthenium red: prevented the inhibition of mitochondrial complexes I and IV
[5]
  Aβ levels: reduction of Aβ levels
[6]
  Ethanol-induced hepatic mitochondrial DNA depletion: protects against ethanol-induced hepatic mitochondrial DNA depletion
Aβ [7]
  Aggregation of Aβ: decreased the aggregation of Aβ
Aβ [8]
  Aβ levels: reduces Aβ levels
Aβ1-41
  Aβ1-41 levels: decreased Aβ1-41 levels
Aβ aggregation [9]
  Aβ aggregation: reduced Aβ aggregation
Aβ [10]
  Hippocampal Aβ generation: reduced hippocampal Aβ generation
Aβ in N2A cells
  Aβ levels: reduced Aβ levels
Aβ aggregation [11]
  Aβ aggregation: prevents Aβ aggregation
Aβ [12]
  Aβ accumulation: attenuates Aβ accumulation
GSK-3β phosphorylation
  Decreased GSK-3β phosphorylation: about 40%
Tau or neurofilament
  Tau or neurofilament hyperphosphorylation: efficiently attenuates tau or neurofilament hyperphosphorylation
AβPP
  AβPP levels: no change in AβPP levels
Aβ [13]
  Aβ levels: reduction in Aβ levels
Mitochondrial function
  Mitochondrial function: restores mitochondrial function

## Cc1c(C(=O)NN2CCCCC2)nn(-c2ccc(Cl)cc2Cl)c1-c1ccc(Cl)cc1 [rimonabant]
Aβ in N2a/AβPPswe cells; antagonist at 10^−4 M with 25 nM THC
  Block of THC's Aβ lowering by CB1 antagonist: partially blocked
Aβ in N2a/AβPPswe cells; antagonist at 10^−7 M with 25 nM THC
  Block of THC's Aβ lowering by CB1 antagonist: inhibition function is lost
